Results on 1 molecule are retold here after patent publication US20100261749A1, “METHOD OF PREVENTING OR AMELIORATING PSORIASIS USING PYRROLOQUINOLINE QUINONE COMPOUNDS” (KYOWA HAKKO BIO CO., LTD., priority 2007, published 2010).

Assay [1] concerns HOS: HR-1 mice. The experiment in a line: Transepidermal water loss (TEWL) in dry skin mouse models, Tewameter TM210. In kind it is in vivo. The settings on record: for TEWL value: specialty feed containing 0.0089% by weight PQQ disodium salt, right buttock, group average. The procedure: (§1) For testing, HOS: HR-1 mice (female, 4 weeks old, purchased from Hoshino Laboratory Animmals, Inc.) were used. Mice were raised under conditions of a room temperature of 22±3° C. and a humidity of 50±25% while being fed with feed and water ad libitum.
(§2) Each test group consisted of 8 mice. The mice of the 1st group were fed with a commercially available powder feed product “CE-2.” The mice of the 2nd group were fed with a specialty feed product (produced by Nosan Corporation). The mice of the 3rd group were fed with a specialty feed product containing 0.0089% by weight of pyrroloquinoline quinone disodium salt (hereinafter referred to as PQQ disodium salt, produced by Mitsubishi Gas Chemical Company, Inc.). In addition, it has been known that HOS: HR-1 mice develop dry skin after being fed with the above specialty feed product (The Journal of international medical research pharmacology, 32, 392-399 (2004)).
Upon the initiation of feeding with each feed product and 2, 4, and 6 weeks later, the transepidermal water loss (TEWL) of the right buttock of each mouse was determined with the use of a Tewameter TM210 (Courage+Khazaka electronic GmbH, Germany) and the average value for each group was calculated.

The test system of assay [2] is HOS: HR-1 mice. Description: Skin moisture content (conductance) in dry skin mouse models, SKICON-200. It counts as in vivo. The settings on record: for Conductance (skin moisture content): specialty feed containing 0.0089% by weight PQQ disodium salt, group average. The protocol:
as §1, §2
In addition, the skin moisture content (conductance) was determined with SKICON-200 (produced by IBS) and the average value for each group was calculated. Table 2 lists results of determination of the skin moisture content from week 0 to week 6 after the initiation of the test.

Assay [3] concerns HOS: HR-1 mice. The experiment in a line: Epidermis thickness, paraffin sections of mouse dorsal skin. In kind it is in vivo. The procedure:
as §1, §2
Paraffin sections of mouse dorsal skin fixed with neutral buffer containing 10 vol % formalin were prepared for the determination of epidermis thickness. Table 3 lists results of the determination of epidermis thickness 6 weeks after the initiation of the test.

Another assay concerns mast cells in dermis. Description: Number of mast cells in dermis, May-Grunwald-Giemsa staining. In kind it is in vivo, mice. The protocol: as §1, §2
The number of mast cells in dermis was determined with the use of May-Grunwald-Giemsa staining specimens. The counting area was the dermis located above the cutaneous muscle. The number of cells in the dermis (per 1 mm of the baseline) was obtained by dividing the determined cell number by the length of a straight line extending between both ends of the cutaneous muscle (baseline). […]

Assay [4] deals with CD3-positive T lymphocytes in the epidermis. The experiment in a line: Number of CD3-positive T lymphocytes in epidermis, anti-CD3 immunostaining. It counts as in vivo, mice. The procedure:
as §1, §2
In addition, counting of the number of CD3-positive T lymphocytes in the epidermis was carried out with the use of anti-CD3 immunostained specimens. The counting area was the dermis located above the cutaneous muscle. The number of cells in the epidermis (per mm of the baseline) was obtained by dividing the determined cell number by the length of a straight line extending between both ends of the cutaneous muscle (baseline). […]

Where [5] appears, read: 3rd group versus 2nd group (specialty feed without PQQ disodium salt).
[6] abbreviates: feeding period 0 weeks (initiation).
The mark [7] stands for this setting: 3rd group versus 2nd group, 6 weeks.
Where [8] appears, read: 6 weeks after initiation, specialty feed containing 0.0089% by weight PQQ disodium salt, *p < 0.05 for the 2nd group.

As for `O=C(O)c1cc(C(=O)O)c2c(n1)C(=O)C(=O)c1cc(C(=O)O)[nH]c1-2.[Na].[Na]` [PQQ disodium salt, pyrroloquinoline quinone disodium salt], in the assay with HOS: HR-1 mice [1] (setting [5]), the “Transepidermal water loss value (TEWL value), result in words” value was “suppressed to a level lower than that in the 2nd group”. The TEWL value in the assay on HOS: HR-1 mice [1] (setting [6]) was 4.94 g/m²/h; in the assay with HOS: HR-1 mice [1] (feeding period 2 weeks), 17.9 g/m²/h; in the assay on HOS: HR-1 mice [1] (feeding period 4 weeks), 27 g/m²/h; with HOS: HR-1 mice [1] (feeding period 6 weeks), 29.9 g/m²/h. The “Skin moisture content (conductance), result in words” value in the assay with HOS: HR-1 mice [2] (setting [5]) was “increased to a greater extent than that in the 2nd group”. The “Conductance (skin moisture content)” value with HOS: HR-1 mice [2] (setting [6]) was 414.55 μS; with HOS: HR-1 mice [2] (feeding period 2 weeks), 67.83 μS; with HOS: HR-1 mice [2] (feeding period 4 weeks), 41.95 μS; in the assay on HOS: HR-1 mice [2] (feeding period 6 weeks), 39.03 μS. Further, the “Epidermis thickening, result in words” value in the assay with HOS: HR-1 mice [3] (setting [7]) is listed as “epidermis thickening was suppressed”. In addition, the Epidermis thickness in the assay on HOS: HR-1 mice [3] (6 weeks after initiation, dorsal skin, specialty feed containing 0.0089% by weight PQQ disodium salt) amounted to 64.03 μm. The “Number of mast cells in the dermis, result in words” value with mast cells in dermis (setting [7]) is recorded as “the number of mast cells in the dermis was suppressed”. Also, in the assay on mast cells in dermis (setting [8]), the “Number of mast cells in dermis per mm basal line” value is on record as 54.62* cells/mm basal line. Besides, the “Number of CD3-positive cells in the epidermis, result in words” value in assay [4] (setting [7]) is listed as “the number of CD3-positive cells in the epidermis was suppressed”. Moreover, the “Number of CD3-positive cells in epidermis per mm basal line” value in assay [4] (setting [8]) is listed as 18.95* cells/mm basal line.
